This passage reports Ki results from patent US11530186B2, “Inhibitors for the β-catenin / T-cell factor protein-protein interaction” (H. LEE MOFFITT CANCER CENTER AND RESEARCH INSTITUTE, INC., priority 2018, dated 2022).

SMILES strings stand for the structures. Where two headings read alike, the source gives them in different places.

The target in this test is T1, β-catenin/Tcf protein-protein interaction (Homo sapiens, UniProt P35222).
T1 construct: Wild-type β-catenin (residues 138-781) were cloned into a pET-28b vector; 6×histidine (C); made in house; host or cells: E. coli BL21 DE3
T1 sequence (P35222 138-781): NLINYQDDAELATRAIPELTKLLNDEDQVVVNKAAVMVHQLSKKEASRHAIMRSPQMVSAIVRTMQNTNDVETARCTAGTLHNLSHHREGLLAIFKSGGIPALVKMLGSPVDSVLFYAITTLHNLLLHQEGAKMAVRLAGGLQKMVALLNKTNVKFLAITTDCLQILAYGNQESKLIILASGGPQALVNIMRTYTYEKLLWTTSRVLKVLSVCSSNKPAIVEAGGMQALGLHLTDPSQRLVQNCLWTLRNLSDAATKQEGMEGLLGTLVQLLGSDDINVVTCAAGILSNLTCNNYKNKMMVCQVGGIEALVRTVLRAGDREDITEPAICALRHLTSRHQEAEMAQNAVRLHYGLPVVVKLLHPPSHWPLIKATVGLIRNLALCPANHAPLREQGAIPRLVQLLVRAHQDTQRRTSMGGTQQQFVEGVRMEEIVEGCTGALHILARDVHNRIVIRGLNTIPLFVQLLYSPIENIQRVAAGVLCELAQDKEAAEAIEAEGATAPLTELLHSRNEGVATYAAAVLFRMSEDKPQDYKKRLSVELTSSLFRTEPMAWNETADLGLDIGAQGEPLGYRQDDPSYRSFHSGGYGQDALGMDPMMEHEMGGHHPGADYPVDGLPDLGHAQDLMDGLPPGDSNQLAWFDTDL
As to the kind of experiment: FP competitive inhibition assay. The class given is binding. As to the method:
Protein Expression and Purification. Wild-type β-catenin (residues 138-781) were cloned into a pET-28b vector carrying a C-terminal 6×histidine (Novagen) and transformed into E. coli BL21 DE3 (Novagen). Cells were cultured in LB medium with 30 μg/mL kanamycin until the OD600 was approximately 0.8, and then protein expression was induced with 400 μM of IPTG at 20° C. overnight. Cells were lysed by sonication. The proteins were purified by Ni-NTA affinity chromatography (30210, Qiagen) and dialyzed against a buffer containing 20 mM of Tris (pH 8.8), 100 mM NaCl, 10% glycerol, and 3 mM DTT. The purity of β-catenin was set to >95% as determined by SDS-PAGE gel analysis. Native non-denaturing gel electrophoresis experiment and the thermal-shift assay on an iCycler iQ Real Time Detection System (Bio-Rad) were performed for each purified protein. In the thermal shift assay, protein unfolding was evaluated through measuring the fluorescence changes of fluorescent dye Sypro Orange with purified β-catenin proteins. A temperature increment of 1° C./min was applied to monitor protein stability and detect protein aggregation. CD spectra were measured on a J-815 spectropolarimeter (Jasco). All spectra were recorded using a 1 mm path-length quartz cell. The CD spectra were averaged over three scans, and the wavelength was scanned from 260 to 190 nm in step of 1 nm. All spectra were recorded at room temperature, and the baseline was corrected by subtracting the CD spectra of a blank control containing all of the substances except protein. Samples were prepared at a concentration around 1-5 μM in a buffer of 10 mM potassium phosphate and 100 mM potassium fluoride at pH 7.0 to ensure that the transmission of light through the sample was not restricted. All proteins were stable, and no aggregation was observed under storage or assay conditions. Proteins were aliquoted and stored at −80° C. C-terminally fluorescein-labeled human Tcf4 (residues 7-51) was synthesized and HPLC purified with purity >95%. The structures were validated by LC/MS (liquid chromatography/mass spectrometry).
FP Assays. The procedures for the FP competitive inhibition assays have been described previously (Zhang, M.; Huang, Z.; Yu, B.; Ji, H. New homogeneous high-throughput assays for inhibitors of β-catenin/Tcf protein-protein interactions Anal. Biochem. 2012, 424, 57-63; Zhang, M.; Catrow, J. L.; Ji, H. High-throughput selectivity assays for small-molecule inhibitors of β-catenin/T-cell factor protein-protein interactions. ACS Med. Chem. Lett. 2013, 4, 306-311). Briefly, all of the tested compounds were prepared as 10 mM DMSO stocks. In the primary screen, the concentrations of the compounds and DMSO were set to 50 μM and 1% (v/v). Only the compounds which FP signal decreases were greater than 50% in the single-point β-catenin/Tcf assay were evaluated by counter screen. […] In the FP competitive inhibition assay, 10 nM human β-catenin and 2.5 nM of C-terminally fluorescein-labeled human Tcf4 were incubated in an assay buffer of 137 mM NaCl, 2.7 mM KCl, 10 mM Na2HPO4, 2 mM KH2PO4, 100 μg/mL of bovine γ-globulin, and 0.01% Triton-X100 for 15 min at 4° C. Bovine γ-globulin and Triton-X100 were included in the assay buffer to decrease the likelihood of compound acting by aggregate formation. Different concentrations of the tested compounds in the assay buffer were added to each test plate to make a final volume of 100 μL. Each assay plate was covered black and gently mixed on an orbital shaker at 4° C. for 1.5 h to reach equilibrium before the polarization values were read. The IC50 value was determined by nonlinear least-square analysis of GraphPad Prism 5.0. The Ki values were derived (Nikolovska-Coleska, Z.; Wang, R.; Fang, X.; Pan, H.; Tomita, Y.; Li, P.; Roller, P. P.; Krajewski, K.; Saito, N. G.; Stuckey, J. A.; Wang, S. Development and optimization of a binding assay for the XIAP BIR3 domain using fluorescence polarization. Anal. Biochem. 2004, 332, 261-273). […]

Where [1] appears, read: Assay 1, mean ± SD (n = 3), read-out: Ki ± SD, Assay 1.
The mark [2] stands for this setting: Assay 2, mean ± SD (n = 3), read-out: Ki ± SD, Assay 2.

In the case of `COc1ccc2sc(CCc3c(CCc4ccc(Cl)cc4)c4cc(C(=O)NCCc5ccc(Cl)cc5)ccc4n3CCc3nn[nH]n3)nc2c1` [Compound 49, 1-(2-(2H-tetrazol-5-yl)ethyl)-N,3-bis(4-chlorophenethyl)-2-(2-(5-methoxybenzo[d]thiazol-2-yl)ethyl)-1H-indole-5-carboxamide], the Ki (in general, a measure of affinity in units of concentration, obtained from inhibition or displacement) is, setting by setting: under setting [1], 0.75 ± 0.23 µM; under setting [2], 3.2 ± 0.24 µM.

With `COc1ccc2sc(CCc3c(CCc4ccc(Cl)cc4)c4cc(C(=O)NCCOc5ccc(Cl)cc5)ccc4n3CCc3nn[nH]n3)nc2c1` [Compound 50, 1-(2-(2H-tetrazol-5-yl)ethyl)-3-(4-chlorophenethyl)-N-(2-(4-chlorophenoxy)ethyl)-2-(2-(5-methoxybenzo[d]thiazol-2-yl)ethyl)-1H-indole-5-carboxamide], the Ki under setting [1] amounted to 3.2 ± 0.28 µM.

With `COc1ccc2sc(CCc3c(CCc4ccc(Cl)cc4)c4cc(C(=O)NCc5ccccc5Cl)ccc4n3CCc3nn[nH]n3)nc2c1` [Compound 51, 1-(2-(2H-tetrazol-5-yl)ethyl)-N-(2-chlorobenzyl)-3-(4-chlorophenethyl)-2-(2-(5-methoxybenzo[d]thiazol-2-yl)ethyl)-1H-indole-5-carboxamide], the Ki runs as follows: under setting [1], 3.6 ± 0.6 µM; under setting [2], 4.8 ± 0.84 µM.

Consider `COc1ccc2sc(CCc3c(CCc4ccc(Cl)cc4)c4cc(C(=O)NCc5ccccc5Br)ccc4n3CCc3nn[nH]n3)nc2c1` [Compound 52, 1-(2-(2H-tetrazol-5-yl)ethyl)-N-(2-bromobenzyl)-3-(4-chlorophenethyl)-2-(2-(5-methoxybenzo[d]thiazol-2-yl)ethyl)-1H-indole-5-carboxamide], for which the Ki runs as follows: under setting [1], 1.5 ± 0.17 µM; under setting [2], 2.6 ± 0.59 µM.

`COc1ccc2sc(CCc3c(CCc4ccc(Cl)cc4)c4cc(C(=O)NCc5cccc(Cl)c5)ccc4n3CCc3nn[nH]n3)nc2c1` [Compound 53, 1-(2-(2H-tetrazol-5-yl)ethyl)-N-(3-chlorobenzyl)-3-(4-chlorophenethyl)-2-(2-(5-methoxybenzo[d]thiazol-2-yl)ethyl)-1H-indole-5-carboxamide]: the inhibition constant (Ki) is 2.7 ± 0.34 µM under setting [1] and 6.1 ± 1.2 µM under setting [2].

As for `COc1ccc2sc(CCc3c(CCc4ccc(Cl)cc4)c4cc(C(=O)NCc5ccsc5)ccc4n3CCc3nn[nH]n3)nc2c1` [Compound 59, 1-(2-(2H-tetrazol-5-yl)ethyl)-3-(4-chlorophenethyl)-2-(2-(5-methoxybenzo[d]thiazol-2-yl)ethyl)-N-(thiophen-3-ylmethyl)-1H-indole-5-carboxamide], the Ki came out at 0.83 ± 0.048 µM under setting [1] and 3.7 ± 0.23 µM under setting [2].

`COc1ccc2sc(CCc3c(CCc4ccc(Cl)cc4)c4cc(C(=O)NCC5CCCCC5)ccc4n3CCc3nn[nH]n3)nc2c1` [Compound 63, 1-(2-(2H-tetrazol-5-yl)ethyl)-3-(4-chlorophenethyl)-N-(cyclohexylmethyl)-2-(2-(5-methoxybenzo[d]thiazol-2-yl)ethyl)-1H-indole-5-carboxamide]: the Ki was found to be 1.4 ± 0.2 µM under setting [1] and 4.3 ± 0.39 µM under setting [2].

As to `COc1ccc2sc(CCc3c(CCc4ccc(Cl)cc4)c4cc(C(=O)NCC5CCOCC5)ccc4n3CCc3nn[nH]n3)nc2c1` [Compound 64, 1-(2-(2H-tetrazol-5-yl)ethyl)-3-(4-chlorophenethyl)-2-(2-(5-methoxybenzo[d]thiazol-2-yl)ethyl)-N-((tetrahydro-2H-pyran-4-yl)methyl)-1H-indole-5-carboxamide], the Ki runs as follows: under setting [1], 5.4 ± 0.76 µM; under setting [2], 9.5 ± 1.5 µM.

Regarding `COc1ccc2sc(CCc3c(CCc4ccc(Cl)cc4)c4cc(C(=O)NCC5CCOC5)ccc4n3CCc3nn[nH]n3)nc2c1` (stereo not shown) [Compound 65, 1-(2-(2H-tetrazol-5-yl)ethyl)-3-(4-chlorophenethyl)-2-(2-(5-methoxybenzo[d]thiazol-2-yl)ethyl)-N-((tetrahydrofuran-3-yl)methyl)-1H-indole-5-carboxamide], the Ki under setting [1] came to 6.1 ± 0.76 µM.

For `COc1ccc2sc(CCc3c(CCc4ccc(Cl)cc4)c4cc(C(=O)NCC(O)CO)ccc4n3CCc3nn[nH]n3)nc2c1` (stereo not shown) [Compound 66, 1-(2-(2H-tetrazol-5-yl)ethyl)-3-(4-chlorophenethyl)-N-(2,3-dihydroxypropyl)-2-(2-(5-methoxybenzo[d]thiazol-2-yl)ethyl)-1H-indole-5-carboxamide], the inhibition constant (Ki) worked out at 3.7 ± 0.19 µM under setting [1] and 32 ± 3.8 µM under setting [2].

With `COc1ccc2sc(CCc3c(CCc4ccc(Cl)cc4)c4cc(C(=O)NCC5CCNCC5)ccc4n3CCc3nn[nH]n3)nc2c1` [Compound 67, 4-((1-(2-(2H-tetrazol-5-yl)ethyl)-3-(4-chlorophenethyl)-2-(2-(5-methoxybenzo[d]thiazol-2-yl)ethyl)-1H-indole-5-carboxamido)methyl)piperidin-1-ium], the Ki by setting is: under setting [1], 5.9 ± 0.37 µM; under setting [2], greater than 22 µM.

Regarding `COc1ccc2sc(CCc3c(CCc4ccc(Cl)cc4)c4cc(C(=O)N[C@H]5CC[C@@H](N)CC5)ccc4n3CCc3nn[nH]n3)nc2c1` [Compound 68, (1s,4s)-4-(1-(2-(2H-tetrazol-5-yl)ethyl)-3-(4-chlorophenethyl)-2-(2-(5-methoxybenzo[d]thiazol-2-yl)ethyl)-1H-indole-5-carboxamido)cyclohexan-1-aminium], the Ki by setting is: under setting [1], greater than 24 µM; under setting [2], greater than 22 µM.

Take `COc1ccc2sc(CCc3c(CCc4ccc(Cl)cc4)c4cc(C(=O)N[C@H]5CC[C@H](N)CC5)ccc4n3CCc3nn[nH]n3)nc2c1` [Compound 69, (1r,4r)-4-(1-(2-(2H-tetrazol-5-yl)ethyl)-3-(4-chlorophenethyl)-2-(2-(5-methoxybenzo[d]thiazol-2-yl)ethyl)-1H-indole-5-carboxamido)cyclohexan-1-aminium]: the Ki is greater than 24 µM under setting [1] and greater than 22 µM under setting [2].

With `COc1ccc2sc(C#Cc3c(CCc4ccc(Cl)cc4)c4cc(C(=O)O)ccc4n3CCc3nn[nH]n3)nc2c1` [Compound 71, 1-(2-(2H-tetrazol-5-yl)ethyl)-3-(4-chlorophenethyl)-2-((5-methoxybenzo[d]thiazol-2-yl)ethynyl)-1H-indole-5-carboxylic acid], the Ki is, setting by setting: under setting [1], 0.18 ± 0.034 µM; under setting [2], 0.29 ± 0.026 µM; (Assay 3, mean ± SD (n = 3), read-out: Ki ± SD, Assay 3) 0.34 ± 0.023 µM; (Assay 4, mean ± SD (n = 3), read-out: Ki ± SD, Assay 4) 0.45 ± 0.028 µM.
